The values below are quoted from earlier work in US10772852B2, “Compositions and methods for combination pharmacological treatments to induce a prolonged, mild decrease in core body temperature” (priority 2015, dated 2020).

One data set has as its system mice. To be noted: Reilly et al. 2013.
Data set [1] deals with women with ovarian cancer. To be noted: on average, Kumar et al. (2013).
For data set [2] the following is noted: Boyle et al. 2013.

Consider `CC(C)c1ccc2oc3nc(N)c(C(=O)O)cc3c(=O)c2c1` [amlexanox], for which the “effect on obesity, diabetes, and fatty liver” value in the data set on mice is “reverse obesity, diabetes, and fatty liver in mice”.

In the case of `CN(C)C(=N)N=C(N)N` [metformin], the “likelihood to survive for 5 years after diagnosis versus women not taking the drug” value in data set [1] is “nearly four times more likely to survive for 5 years”. Further, the “reduction in the risk of cardiovascular events” value in data set [2] (29 different studies) is given as 10%. Further, in data set [2] (nine studies), the “reduction in the risk of MI” value is reported as 12%. Moreover, the “reduction in the risk of heart failure” value in data set [2] (seven studies) was 10%.
